Source: patent US12215140B2, “Method of stabilizing protein contained in specimen and solution for stabilizing protein contained in specimen” (EIKEN KAGAKU KABUSHIKI KAISHA, priority 2018, dated 2025)
Where “and” joins values, the source holds several entries; their conditions need not be identical. Identical values can stand only once.

Target: hemoglobin (Homo sapiens, UniProt P68871+P69905)
Assay: Stability of hemoglobin in samples preserved at 37° C. in preservation solution containing no haptoglobin, Hb measured by latex agglutination method (Examples 8, 9 and Table 10)
Conditions: for Hb concentration / Recovery ratio with respect to Hb after 0 days: no phenylboronic acid, sugar 100 mmol/L; for recovery ratio of hemoglobin in the sample: sugar further added to phenylboronic acid 0.5 mmol/L, no haptoglobin, Feces 1, Feces 2, Feces 3
In short: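 Latex agglutination gave Hb concentration after storage at 37 °C for up to 62 h. Preservation solution (HEPES 40 mmol/L pH 6.8, BSA, NaN3, no haptoglobin) contained 0–2.5 mmol/L phenylboronic acid, some with added sugars (10–250 mmol/L). Samples held about 300 μg/L Hb, with or without 0.5% feces.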

Chain of hemoglobin (P69905 2-142): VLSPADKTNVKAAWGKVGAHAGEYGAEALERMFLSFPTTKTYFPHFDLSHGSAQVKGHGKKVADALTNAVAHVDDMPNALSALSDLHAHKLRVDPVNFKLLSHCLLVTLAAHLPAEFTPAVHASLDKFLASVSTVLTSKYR
Chain of hemoglobin (P68871 2-147): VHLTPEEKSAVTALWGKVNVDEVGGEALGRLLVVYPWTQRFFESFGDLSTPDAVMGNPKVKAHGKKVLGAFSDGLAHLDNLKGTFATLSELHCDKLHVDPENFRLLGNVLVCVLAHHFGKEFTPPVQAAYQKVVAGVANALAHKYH

| Compound | Hb concentration (Feces 1, 0 h at 37° C.) [µg/L] | Recovery ratio with respect to Hb after 0 days (Feces 1, 0 h at 37° C.) [%] | Hb concentration (Feces 1, 16 h at 37° C.) [µg/L] | Recovery ratio with respect to Hb after 0 days (Feces 1, 16 h at 37° C.) [%] | Hb concentration (Feces 1, 38 h at 37° C.) [µg/L] | Recovery ratio with respect to Hb after 0 days (Feces 1, 38 h at 37° C.) [%] | Hb concentration (Feces 1, 62 h at 37° C.) [µg/L] | Recovery ratio with respect to Hb after 0 days (Feces 1, 62 h at 37° C.) [%] | Hb concentration (Feces 2, 0 h at 37° C.) [µg/L] | Recovery ratio with respect to Hb after 0 days (Feces 2, 0 h at 37° C.) [%] | Hb concentration (Feces 2, 16 h at 37° C.) [µg/L] | Recovery ratio with respect to Hb after 0 days (Feces 2, 16 h at 37° C.) [%] | Hb concentration (Feces 2, 38 h at 37° C.) [µg/L] | Recovery ratio with respect to Hb after 0 days (Feces 2, 38 h at 37° C.) [%] | Hb concentration (Feces 2, 62 h at 37° C.) [µg/L] | Recovery ratio with respect to Hb after 0 days (Feces 2, 62 h at 37° C.) [%] | Hb concentration (Feces 3, 0 h at 37° C.) | Recovery ratio with respect to Hb after 0 days (Feces 3, 0 h at 37° C.) [%] | Hb concentration (Feces 3, 16 h at 37° C.) | Recovery ratio with respect to Hb after 0 days (Feces 3, 16 h at 37° C.) | other results |
| --- | --- | --- | --- | --- | --- | --- | --- | --- | --- | --- | --- | --- | --- | --- | --- | --- | --- | --- | --- | --- | --- |
| OC[C@@H](O)[C@@H](O)[C@H](O)[C@@H](O)CO [Sorbitol, sorbitol] | 290 | 100 | 146 | 50 | 39 | 13 | 1 | 0 | 275 | 100 | 61 | 22 | 0 | 0 | 0 | 0 | 277 µg/L | 100 | 49 µg/L | 18% | Hb concentration (Feces 3, 38 h at 37° C.): 1 µg/L; Recovery ratio with respect to Hb after 0 days (Feces 3, 38 h at 37° C.): 0%; Hb concentration (Feces 3, 62 h at 37° C.): 0 µg/L; Recovery ratio with respect to Hb after 0 days (Feces 3, 62 h at 37° C.): 0%; Hb concentration (No feces, 0 h at 37° C.): 300 µg/L; Recovery ratio with respect to Hb after 0 days (No feces, 0 h at 37° C.): 100%; Hb concentration (No feces, 16 h at 37° C.): 263 µg/L; Recovery ratio with respect to Hb after 0 days (No feces, 16 h at 37° C.): 88%; Hb concentration (No feces, 38 h at 37° C.): 245 µg/L; Recovery ratio with respect to Hb after 0 days (No feces, 38 h at 37° C.): 82%; Hb concentration (No feces, 62 h at 37° C.): 235 µg/L; Recovery ratio with respect to Hb after 0 days (No feces, 62 h at 37° C.): 79%; recovery ratio of hemoglobin in the sample: further improved |
| O=C(CO)[C@@H](O)[C@H](O)[C@H](O)CO [Fructose, fructose] | 281 | 100 | 134 | 48 | 35 | 12 | 0 | 0 | 268 | 100 | 60 | 22 | 1 | 0 | 0 | 0 | 263 µg/L and 269 µg/L | 100 | 51 µg/L and 57 µg/L | 19% and 21% | Hb concentration (Feces 3, 38 h at 37° C.): 0 µg/L; Recovery ratio with respect to Hb after 0 days (Feces 3, 38 h at 37° C.): 0%; Hb concentration (Feces 3, 62 h at 37° C.): 0 µg/L; Recovery ratio with respect to Hb after 0 days (Feces 3, 62 h at 37° C.): 0%; Hb concentration (No feces, 0 h at 37° C.): 284 µg/L; Recovery ratio with respect to Hb after 0 days (No feces, 0 h at 37° C.): 100%; Hb concentration (No feces, 16 h at 37° C.): 246 µg/L; Recovery ratio with respect to Hb after 0 days (No feces, 16 h at 37° C.): 86%; Hb concentration (No feces, 38 h at 37° C.): 233 µg/L; Recovery ratio with respect to Hb after 0 days (No feces, 38 h at 37° C.): 82%; Hb concentration (No feces, 62 h at 37° C.): 230 µg/L; Recovery ratio with respect to Hb after 0 days (No feces, 62 h at 37° C.): 81%; recovery ratio of hemoglobin in the sample: further improved |
| OC[C@H]1O[C@@](CO)(O[C@H]2O[C@H](CO)[C@@H](O)[C@H](O)[C@H]2O)[C@@H](O)[C@@H]1O [Sucrose, sucrose] | 271 | 100 | 137 | 51 | 45 | 16 | 10 | 4 | 255 | 100 | 57 | 22 | 3 | 1 | 0 | 0 | 257 µg/L | 100 | 67 µg/L | 26% | Hb concentration (Feces 3, 38 h at 37° C.): 0 µg/L; Recovery ratio with respect to Hb after 0 days (Feces 3, 38 h at 37° C.): 0%; Hb concentration (Feces 3, 62 h at 37° C.): 0 µg/L; Recovery ratio with respect to Hb after 0 days (Feces 3, 62 h at 37° C.): 0%; Hb concentration (No feces, 0 h at 37° C.): 278 µg/L; Recovery ratio with respect to Hb after 0 days (No feces, 0 h at 37° C.): 100%; Hb concentration (No feces, 16 h at 37° C.): 245 µg/L; Recovery ratio with respect to Hb after 0 days (No feces, 16 h at 37° C.): 88%; Hb concentration (No feces, 38 h at 37° C.): 229 µg/L; Recovery ratio with respect to Hb after 0 days (No feces, 38 h at 37° C.): 83%; Hb concentration (No feces, 62 h at 37° C.): 224 µg/L; Recovery ratio with respect to Hb after 0 days (No feces, 62 h at 37° C.): 81%; recovery ratio of hemoglobin in the sample: further improved |
